Experimental data reported in PubChem BioAssay (NCI).
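Cultured in 96-well plates, cells were exposed to test compound for 48 hours across five concentrations. TGI denotes the concentration required for complete inhibition of growth.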

Tests used:
Assay in all cases: growth of human tumour cells (NCI), 48 h
SK-OV-3 ovarian = system: SK-OV-3 ovarian
COLO 205 colon = system: COLO 205 colon
SF-295 CNS = system: SF-295 CNS
786-0 renal = system: 786-0 renal
DU-145 prostate = system: DU-145 prostate
UACC-62 melanoma = system: UACC-62 melanoma
SK-MEL-28 melanoma = system: SK-MEL-28 melanoma
HOP-62 NSCLC = system: HOP-62 NSCLC
HCT-116 colon = system: HCT-116 colon
HOP-92 NSCLC = system: HOP-92 NSCLC
MCF7 breast = system: MCF7 breast
TK-10 renal = system: TK-10 renal
BT-549 breast = system: BT-549 breast
UACC-257 melanoma = system: UACC-257 melanoma
A549 NSCLC = system: A549 NSCLC
SW-620 colon = system: SW-620 colon
NCI-H23 lung = system: NCI-H23 lung
IGROV1 ovarian = system: IGROV1 ovarian
NCI-H226 lung = system: NCI-H226 lung
LOX IMVI melanoma = system: LOX IMVI melanoma

SMILES	TGI (SK-OV-3 ovarian) [µM]	TGI (COLO 205 colon) [µM]	TGI (SF-295 CNS) [µM]	TGI (786-0 renal) [µM]	TGI (DU-145 prostate) [µM]	TGI (UACC-62 melanoma) [µM]	TGI (SK-MEL-28 melanoma) [µM]	TGI (HOP-62 NSCLC) [µM]	TGI (HCT-116 colon) [µM]	TGI (HOP-92 NSCLC) [µM]	TGI (MCF7 breast) [µM]	TGI (TK-10 renal) [µM]	TGI (BT-549 breast) [µM]	TGI (UACC-257 melanoma) [µM]	TGI (A549 NSCLC) [µM]	TGI (SW-620 colon) [µM]	TGI (NCI-H23 lung) [µM]	TGI (IGROV1 ovarian) [µM]	TGI (NCI-H226 lung) [µM]	TGI (LOX IMVI melanoma) [µM]
c1cc2[nH]snc2c2cncc12	> 100	> 100	> 100	> 100	> 100	> 100	> 100	> 100	> 100	85.7	> 100	> 100	> 100	> 100	> 100	> 100	> 100	> 100	> 100	> 100
COc1ccc(C2C3=C(COC3=O)OC(C)(C)Oc3cc4c(cc32)OCO4)cc1 (stereo not given)	> 100	48.5	> 100	> 100	> 100	> 66.6	> 100	> 100	> 85.4	> 65.8	> 100	97	89.3	> 100	> 100	> 100	> 100	> 100	99.2	> 86.8
CCNc1nc(N)c(C(=O)c2cccs2)s1	> 100	22.8	> 100	> 100	> 100	51.8	> 100	> 100	> 100	> 100	> 100	> 100	> 100	> 100	> 100	> 100	63.9	50.3	76	> 100
N#CC(c1ccccc1)N(CCc1ccccc1)C(=O)c1ccccc1 (stereo not given)	> 100	> 100	> 100	> 91.4	> 100	> 100	> 100	> 85.8	> 100	59.7	> 100	> 100	> 100	> 100	> 100	> 100	> 100	> 100	> 100	> 100
CCOC(=O)CCSS(=O)(=O)C(F)(F)F	> 100	> 100	> 100	> 100	> 100	> 100	> 100	> 100	> 100	> 100	> 100	> 100	> 100	> 100	> 100	> 100	> 100	> 100	> 100	> 100
c1ccc(CN2CCCN3CCN(CCCN(Cc4ccccc4)CC3)CC2)cc1	> 100	57.8	> 100	> 100	> 100	> 100	> 100	> 100	> 100	> 100	> 100	> 100	> 100	68.5	> 100	> 100	> 100	> 100	> 100	> 100
CCOC(=O)/C(=C\c1ccnc2ccccc12)P(=O)(OCC)OCC	15.5	4.63	10.5	6.14	7.52	10.4	3.35	5.91	3.61	6.93	14.7	14	4.22	14	14.7	5.27	4.22	4.33	31.3	3.43
C=CCOc1ccc(C2(c3ccc(OCC=C)cc3)C(=O)Nc3ccccc32)cc1	> 10	> 10	> 10	> 10	> 10	> 10	> 10	> 10	> 10	> 10	> 10	> 10	> 10	> 10	> 10	> 10	> 10	> 10	> 10	> 10
CN(C)Cc1cc(N=Nc2ccccc2Cl)ccc1O	> 100	28.6	41.2	35.4	71.4	40.9	32.3	26.2	> 100	> 100	33.5	65.8	85.4	46.3	25.3	28	83.9	> 100	40	25.3
CCCC(=O)OCC1(CO)C/C(=C/CC(C(C)C)C(C)C)C(=O)O1 (stereo not given)	> 100	> 100	> 100	> 100	> 100	> 100	> 100	> 100	> 100	> 100	> 100	> 100	> 100	> 100	> 100	> 100	> 100	> 100	> 100	35.8
